Assay results from PubChem BioAssay AID1745844 (Carcinogenic Potency Database (CPDB), 2022).
Where “and” joins values, the source holds several entries; their conditions need not be identical. Equal entries are not always repeated. Calls of active or inactive are those of the source. The rule behind the calls is not given here.

Tested on: rodent lifetime carcinogenesis bioassay, tumor incidence TD50
Assay: carcinogenic potency in animals, long-term in vivo studies, CPDB compilation (AID 1745844)

In the case of `ClC=C(Cl)Cl`, the carcinogen call (hamster, strain Syrian Golden, females, inhaled, site: any site (literature study), lesion: benign tumor, dosed 78 weeks, study length 130 weeks) is reported as “negative (inactive)”, the TD50 (hamster, strain Syrian Golden, females, inhaled, site: any site (literature study), lesion: malignant tumor, dosed 78 weeks, study length 130 weeks) is reported as 9220 mg/kg/day (inactive) and the carcinogen call (hamster, strain Syrian Golden, females, inhaled, site: liver, lesion: several types, types named in the paper, dosed 78 weeks, study length 130 weeks) is reported as “negative (inactive)”. The TD50 (hamster, strain Syrian Golden, males, inhaled, site: any site (literature study), lesion: benign tumor, dosed 78 weeks, study length 130 weeks) was 5640 mg/kg/day (inactive), the carcinogen call (hamster, strain Syrian Golden, males, inhaled, site: any site (literature study), lesion: malignant tumor, dosed 78 weeks, study length 130 weeks) was “negative (inactive)” and the carcinogen call (hamster, strain Syrian Golden, males, inhaled, site: liver, lesion: several types, types named in the paper, dosed 78 weeks, study length 130 weeks) was “negative (inactive)”. For the same molecule, the TD50 (mouse, strain B6C3F1, females, by gavage, site: any site (literature study), lesion: several types, types named in the paper, dosed 78 weeks, study length 90 weeks) was 1850 mg/kg/day, the TD50 (mouse, strain B6C3F1, females, by gavage, site: any site (literature study), lesion: several types, types named in the paper, dosed 103 weeks, study length 105 weeks) was 359 mg/kg/day and the TD50 (mouse, strain B6C3F1, females, by gavage, site: liver + multiple organs + spleen, lesion: malignant lymphoma, histiocytic type + malignant lymphoma, mixed type + malignant lymphoma, lymphocytic type + malignant lymph, dosed 103 weeks, study length 105 weeks) was 1350 mg/kg/day and 1470 mg/kg/day. For the same molecule, the TD50 (mouse, strain B6C3F1, females, by gavage, site: liver, lesion: hepatocellular adenoma + hepatocellular carcinoma + neoplastic nodule, dosed 78 weeks, study length 90 weeks) was 1930 mg/kg/day, the TD50 (mouse, strain B6C3F1, females, by gavage, site: liver, lesion: hepatocellular adenoma + hepatocellular carcinoma + neoplastic nodule, dosed 103 weeks, study length 105 weeks) was 411 mg/kg/day and the TD50 (mouse, strain B6C3F1, females, by gavage, site: liver, lesion: hepatocellular adenoma + hepatocellular carcinoma, dosed 103 weeks, study length 105 weeks) was 411 mg/kg/day. For the same molecule, the TD50 (mouse, strain B6C3F1, females, by gavage, site: liver, lesion: hepatocellular adenoma, dosed 103 weeks, study length 105 weeks) was 579 mg/kg/day, the TD50 (mouse, strain B6C3F1, females, by gavage, site: liver, lesion: hepatocellular carcinoma, dosed 78 weeks, study length 90 weeks) was 1930 mg/kg/day and the TD50 (mouse, strain B6C3F1, females, by gavage, site: liver, lesion: hepatocellular carcinoma, dosed 103 weeks, study length 105 weeks) was 673 mg/kg/day. The TD50 (mouse, strain B6C3F1, females, by gavage, site: lung, lesion: alveolar/bronchiolar adenoma + alveolar/bronchiolar carcinoma, dosed 78 weeks, study length 90 weeks) was 4350 mg/kg/day, the TD50 (mouse, strain B6C3F1, females, by gavage, site: lung, lesion: alveolar/bronchiolar adenoma + alveolar/bronchiolar carcinoma, dosed 103 weeks, study length 105 weeks) was 3850 mg/kg/day and the TD50 (mouse, strain B6C3F1, females, by gavage, site: lung, lesion: alveolar/bronchiolar adenoma, dosed 103 weeks, study length 105 weeks) was 2780 mg/kg/day. It also gave a TD50 (mouse, strain B6C3F1, females, by gavage, site: multiple organs, lesion: malignant lymphoma, lymphocytic type, dosed 103 weeks, study length 105 weeks) of 4880 mg/kg/day, a TD50 (mouse, strain B6C3F1, females, inhaled, site: any site (literature study), lesion: malignant tumor, dosed 78 weeks, study length 154 weeks) of 2080 mg/kg/day and a TD50 (mouse, strain B6C3F1, females, inhaled, site: any site (literature study), lesion: several types, types named in the paper, dosed 78 weeks, study length 154 weeks) of 1320 mg/kg/day. The TD50 (mouse, strain B6C3F1, females, inhaled, site: liver, lesion: hepatoma, dosed 78 weeks, study length 154 weeks) was 13600 mg/kg/day, the TD50 (mouse, strain B6C3F1, females, inhaled, site: lung, lesion: one or several types, types not named, dosed 78 weeks, study length 154 weeks) was 6320 mg/kg/day and the TD50 (mouse, strain B6C3F1, females, inhaled, site: thyroid gland, lesion: adenoma, dosed 78 weeks, study length 154 weeks) was 2.23e+06 mg/kg/day. For the same molecule, the TD50 (mouse, strain B6C3F1, females, inhaled, site: thyroid gland, lesion: carcinoma, dosed 78 weeks, study length 154 weeks) was 131000 mg/kg/day, the TD50 (mouse, strain B6C3F1, males, by gavage, site: Harderian gland, lesion: adenoma, NOS + acinar-cell adenoma + papillary adenoma, dosed 103 weeks, study length 105 weeks) was 3830 mg/kg/day and the TD50 (mouse, strain B6C3F1, males, by gavage, site: any site (literature study), lesion: several types, types named in the paper, dosed 78 weeks, study length 90 weeks) was 553 mg/kg/day. The TD50 (mouse, strain B6C3F1, males, by gavage, site: any site (literature study), lesion: several types, types named in the paper, dosed 103 weeks, study length 105 weeks) was 332 mg/kg/day, the TD50 (mouse, strain B6C3F1, males, by gavage, site: liver, lesion: hepatocellular adenoma + hepatocellular carcinoma + neoplastic nodule, dosed 78 weeks, study length 90 weeks) was 421 mg/kg/day and the TD50 (mouse, strain B6C3F1, males, by gavage, site: liver, lesion: hepatocellular adenoma + hepatocellular carcinoma + neoplastic nodule, dosed 103 weeks, study length 105 weeks) was 239 mg/kg/day. It also gave a TD50 (mouse, strain B6C3F1, males, by gavage, site: liver, lesion: hepatocellular adenoma + hepatocellular carcinoma, dosed 103 weeks, study length 105 weeks) of 239 mg/kg/day, a TD50 (mouse, strain B6C3F1, males, by gavage, site: liver, lesion: hepatocellular adenoma, dosed 103 weeks, study length 105 weeks) of 855 mg/kg/day and a TD50 (mouse, strain B6C3F1, males, by gavage, site: liver, lesion: hepatocellular carcinoma, dosed 78 weeks, study length 90 weeks) of 421 mg/kg/day. For the same molecule, the TD50 (mouse, strain B6C3F1, males, by gavage, site: liver, lesion: hepatocellular carcinoma, dosed 103 weeks, study length 105 weeks) was 294 mg/kg/day, the TD50 (mouse, strain B6C3F1, males, by gavage, site: lung, lesion: alveolar/bronchiolar adenoma + alveolar/bronchiolar carcinoma, dosed 78 weeks, study length 90 weeks) was 7160 mg/kg/day and the TD50 (mouse, strain B6C3F1, males, by gavage, site: lung, lesion: alveolar/bronchiolar adenoma + alveolar/bronchiolar carcinoma, dosed 103 weeks, study length 105 weeks) was 4250 mg/kg/day. It also gave a TD50 (mouse, strain B6C3F1, males, in drinking water, site: liver, lesion: hepatocellular adenoma, dosed 61 weeks, study length 61 weeks) of 502 mg/kg/day, a TD50 (mouse, strain B6C3F1, males, in drinking water, site: liver, lesion: hepatocellular carcinoma, dosed 61 weeks, study length 61 weeks) of 16 mg/kg/day and a TD50 (mouse, strain B6C3F1, males, inhaled, site: liver, lesion: angiosarcoma, dosed 78 weeks, study length 135 weeks) of 77000 mg/kg/day. For the same molecule, the TD50 (mouse, strain B6C3F1, males, inhaled, site: liver, lesion: hepatoma, dosed 78 weeks, study length 135 weeks) was 4530 mg/kg/day, the TD50 (mouse, strain B6C3F1, males, inhaled, site: liver, lesion: hepatoma, dosed 78 weeks, study length 154 weeks) was 5030 mg/kg/day and the TD50 (mouse, strain Ha/ICR, females, by gavage, site: forestomach, lesion: one or several types, types not named, dosed 88 weeks, study length 88 weeks) was 41.3 mg/kg/day (inactive). For the same molecule, the TD50 (mouse, strain Ha/ICR, males, by gavage, site: forestomach, lesion: one or several types, types not named, dosed 88 weeks, study length 88 weeks) was 16.9 mg/kg/day (inactive), the TD50 (mouse, strain Han:NMRI, females, inhaled, site: all sites, lesion: malignant lymphoma, dosed 78 weeks, study length 130 weeks) was 846 mg/kg/day and the carcinogen call (mouse, strain Han:NMRI, females, inhaled, site: any site (literature study), lesion: benign tumor, dosed 78 weeks, study length 130 weeks) was “negative (inactive)”. For the same molecule, the TD50 (mouse, strain Han:NMRI, females, inhaled, site: any site (literature study), lesion: malignant tumor, dosed 78 weeks, study length 130 weeks) was 573 mg/kg/day (inactive), the carcinogen call (mouse, strain Han:NMRI, females, inhaled, site: liver, lesion: several types, types named in the paper, dosed 78 weeks, study length 130 weeks) was “negative (inactive)” and the carcinogen call (mouse, strain Han:NMRI, females, inhaled, site: lung, lesion: alveolar/bronchiolar adenoma, dosed 78 weeks, study length 130 weeks) was “negative (inactive)”. For the same molecule, the carcinogen call (mouse, strain Han:NMRI, females, inhaled, site: lung, lesion: alveolar/bronchiolar carcinoma, dosed 78 weeks, study length 130 weeks) was “negative (inactive)”, the carcinogen call (mouse, strain Han:NMRI, males, inhaled, site: all sites, lesion: malignant lymphoma, dosed 78 weeks, study length 130 weeks) was “negative (inactive)” and the carcinogen call (mouse, strain Han:NMRI, males, inhaled, site: any site (literature study), lesion: benign tumor, dosed 78 weeks, study length 130 weeks) was “negative (inactive)”. The carcinogen call (mouse, strain Han:NMRI, males, inhaled, site: any site (literature study), lesion: malignant tumor, dosed 78 weeks, study length 130 weeks) was “negative (inactive)”, the carcinogen call (mouse, strain Han:NMRI, males, inhaled, site: liver, lesion: hepatocellular adenoma, dosed 78 weeks, study length 130 weeks) was “negative (inactive)” and the carcinogen call (mouse, strain Han:NMRI, males, inhaled, site: liver, lesion: hepatocellular carcinoma, dosed 78 weeks, study length 130 weeks) was “negative (inactive)”. The carcinogen call (mouse, strain Han:NMRI, males, inhaled, site: liver, lesion: hepatoma, benign, dosed 78 weeks, study length 130 weeks) was “negative (inactive)”, the carcinogen call (mouse, strain Han:NMRI, males, inhaled, site: lung, lesion: alveolar/bronchiolar adenoma, dosed 78 weeks, study length 130 weeks) was “negative (inactive)” and the carcinogen call (mouse, strain Han:NMRI, males, inhaled, site: lung, lesion: malignant tumor, dosed 78 weeks, study length 130 weeks) was “negative (inactive)”. For the same molecule, the TD50 (mouse, strain ICR, females, inhaled, site: any site (literature study), lesion: several types, types named in the paper, dosed 104 weeks, study length 107 weeks) was 1900 mg/kg/day, the TD50 (mouse, strain ICR, females, inhaled, site: liver, lesion: adenoma, dosed 104 weeks, study length 107 weeks) was 42300 mg/kg/day and the TD50 (mouse, strain ICR, females, inhaled, site: lung, lesion: adenocarcinoma, dosed 104 weeks, study length 107 weeks) was 3380 mg/kg/day. The TD50 (mouse, strain ICR, females, inhaled, site: lung, lesion: several types, types named in the paper, dosed 104 weeks, study length 107 weeks) was 3370 mg/kg/day, the TD50 (mouse, strain Swiss, females, inhaled, site: any site (literature study), lesion: malignant tumor, dosed 78 weeks, study length 145 weeks) was 9840 mg/kg/day and the TD50 (mouse, strain Swiss, females, inhaled, site: any site (literature study), lesion: several types, types named in the paper, dosed 78 weeks, study length 145 weeks) was 9190 mg/kg/day. The TD50 (mouse, strain Swiss, females, inhaled, site: liver, lesion: hepatoma, dosed 78 weeks, study length 145 weeks) was 121000 mg/kg/day, the TD50 (mouse, strain Swiss, females, inhaled, site: lung, lesion: one or several types, types not named, dosed 78 weeks, study length 145 weeks) was 35400 mg/kg/day and the TD50 (mouse, strain Swiss, males, inhaled, site: any site (literature study), lesion: malignant tumor, dosed 78 weeks, study length 145 weeks) was 6320 mg/kg/day.
